This passage reports IC50 results from BindingDB's records for doi:10.1124/jpet.102.044826 (Taisho Pharmaceutical, 2003).

The target in assay [1] is T1, Alpha-1A adrenergic receptor (Rattus norvegicus, UniProt P43140).
T1 sequence (P43140 whole entry): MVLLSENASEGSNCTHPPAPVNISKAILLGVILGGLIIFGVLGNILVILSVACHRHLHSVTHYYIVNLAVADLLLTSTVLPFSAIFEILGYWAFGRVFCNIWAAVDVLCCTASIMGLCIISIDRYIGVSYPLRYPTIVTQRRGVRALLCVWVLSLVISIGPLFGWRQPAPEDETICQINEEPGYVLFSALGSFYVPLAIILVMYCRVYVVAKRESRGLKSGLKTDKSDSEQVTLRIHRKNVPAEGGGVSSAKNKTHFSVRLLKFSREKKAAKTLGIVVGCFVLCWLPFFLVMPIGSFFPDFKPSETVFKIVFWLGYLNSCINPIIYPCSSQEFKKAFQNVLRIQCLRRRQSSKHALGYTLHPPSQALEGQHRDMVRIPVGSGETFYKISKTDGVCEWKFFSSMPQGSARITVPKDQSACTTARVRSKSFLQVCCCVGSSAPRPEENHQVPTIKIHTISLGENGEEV

The target of assay [2] is T2, Alpha-2C adrenergic receptor (Homo sapiens, UniProt P18825).
T2 sequence (P18825 whole entry): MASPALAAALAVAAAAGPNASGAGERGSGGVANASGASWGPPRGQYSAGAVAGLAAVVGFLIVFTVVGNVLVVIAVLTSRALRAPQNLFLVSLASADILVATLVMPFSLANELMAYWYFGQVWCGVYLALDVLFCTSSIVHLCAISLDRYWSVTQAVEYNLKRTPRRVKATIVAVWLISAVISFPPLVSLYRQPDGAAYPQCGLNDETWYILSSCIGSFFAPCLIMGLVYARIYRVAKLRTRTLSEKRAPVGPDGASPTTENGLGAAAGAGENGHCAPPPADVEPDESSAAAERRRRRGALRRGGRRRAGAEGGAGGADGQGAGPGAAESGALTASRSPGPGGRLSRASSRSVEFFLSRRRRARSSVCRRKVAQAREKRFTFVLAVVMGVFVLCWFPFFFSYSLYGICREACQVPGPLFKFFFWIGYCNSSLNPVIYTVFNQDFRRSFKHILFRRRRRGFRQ

Usually IC50 stands for the concentration needed to halve the response being measured.

Take `COc1ccc2ccccc2c1CCCCN1CCN(C[C@H](c2ccc(F)cc2)N2CCN(C(C)C)CC2)CC1` [MCL0129]: the figures for the IC50 in assay [1] and in assay [2] were 630 nM and 1000 nM, respectively.
